Patent US10301630B2, “Methods and compositions for unsilencing imprinted genes” (The University of North Carolina at Chapel Hill, priority 2010, dated 2019)

Biological target: T1, Topoisomerase I (Mus musculus, UniProt Q04750)
T1 construct: immunoblotted with an anti-Topoisomerase I antibody (Santa Cruz) to detect free Topoisomerase I; endogenous in cells; host or cells: DIV7 primary mouse cortical neurons (Ube3a m-/p+ and wild type)
T1 sequence (Q04750 1-767): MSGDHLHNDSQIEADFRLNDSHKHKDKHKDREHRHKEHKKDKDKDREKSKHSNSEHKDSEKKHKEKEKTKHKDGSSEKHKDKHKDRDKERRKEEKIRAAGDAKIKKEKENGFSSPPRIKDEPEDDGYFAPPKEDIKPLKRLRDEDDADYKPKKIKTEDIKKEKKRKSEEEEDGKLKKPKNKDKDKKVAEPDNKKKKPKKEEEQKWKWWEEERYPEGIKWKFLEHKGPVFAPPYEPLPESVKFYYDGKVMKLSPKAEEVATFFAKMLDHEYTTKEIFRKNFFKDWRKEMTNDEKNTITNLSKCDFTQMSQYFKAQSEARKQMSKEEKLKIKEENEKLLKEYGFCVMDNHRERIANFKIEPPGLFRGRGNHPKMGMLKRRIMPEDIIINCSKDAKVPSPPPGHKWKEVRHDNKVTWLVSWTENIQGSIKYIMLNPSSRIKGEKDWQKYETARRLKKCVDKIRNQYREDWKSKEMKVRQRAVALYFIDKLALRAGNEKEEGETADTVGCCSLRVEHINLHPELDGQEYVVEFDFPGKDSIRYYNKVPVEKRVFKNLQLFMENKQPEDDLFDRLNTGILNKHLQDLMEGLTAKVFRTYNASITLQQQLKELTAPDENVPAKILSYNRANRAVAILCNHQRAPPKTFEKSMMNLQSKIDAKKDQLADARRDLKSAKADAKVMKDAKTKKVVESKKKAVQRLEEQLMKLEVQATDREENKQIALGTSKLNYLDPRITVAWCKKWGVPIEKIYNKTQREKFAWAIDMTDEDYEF
Assay: Topoisomerase depletion assay (free TOP1 by Western blot)
Assay type: cell-based
Conditions: 300 nM, 72 h, cultured neurons
Description: Cells were harvested and lysed on ice for 30 min in RIPA buffer (50 mM Tris-HCl, 150 mM NaCl, 1% Triton X-100, 0.5% sodium deoxycholate, 0.1% SDS, pH 7.4) to preserve topoisomerase cleavable complexes. Cell extracts were then centrifuged at 14,000 rpm at 4° C. to pellet insoluble debris. 30 μg of the cell supernatant was diluted in 2×SDS sample buffer and separated on a 7.5% SDS-PAGE gel, transferred to PVDF membrane, and immunoblotted with an anti-Topoisomerase I antibody (Santa Cruz) to detect free Topoisomerase I. An anti-β-Tubulin (Sigma) antibody was used as a loading control.

CC[C@@]1(O)C(=O)OCc2c1cc1n(c2=O)Cc2cc3c(CN(C)C)c(O)ccc3nc2-1 [Topotecan]
amount of free (unbound) TOP1: significantly reduce the amount of free TOP1
